Assay results from US3954814A, “Alkadienylcyclopropanecarboxylates” (Sumitomo Chemical Company, Limited, priority 1971, dated 1976).
≈ marks a conversion by molar mass, not a printed value.

How the values were obtained:
Assay type in all cases: in vivo
[1] = tested on: house flies; assay: Campbell's turn table oil spray test on house fly adults (Experimental Example 1); settings: Musca domestica, 24 h, oil spray 5 ml, 10 min exposure, mortality after 1 day, read-out: LC50 (50 percent lethal concentration)
Procedure: The present compounds (1), (4), (8), (10), (14), (15), (20), (22), (32), (36), (38), (41), (44), (48), (50), (51), (52), (53), (61), (66), (68), (72), (73), (78), (80), (81), (90), (93) and (96), and chrysanthemic acid esters and pyrethric acid esters corresponding thereto were individually formulated by use of deodorized kerosene into oil sprays of various test concentrations.
Using the Campbell's turn table [disclosed in "Soap & Sanitary Chemicals," Vol. 14, No. 6, page 119 (1938)], 5 ml. of each of the oil sprays was sprayed. When 20 seconds had elapsed after the spraying, the shutter was opened, and adults of house flies (a group of about 100 flies) were exposed to the settling mist for 10 minutes and then transferred to an observation cage.
The above operation was repeated several times to measure the LC50 (50 percent lethal concentration) of each compound.

[2] = tested on: Northern house mosquitoes; assay: knock-down test of oil sprays on Northern house mosquito adults in (70 cm)^3 glass chamber (Experimental Example 2)
Procedure: The present compounds (1), (6), (20), (22), (23), (25), (27), (29), (30), (31), (39), (42), (43), (45), (49), (53), (56), (62), (64), (78), (81), (83), (85), (87), (88) and (89), and chrysanthemic acid esters and pyrethric acid esters corresponding thereto were individually formulated by use of deodorized kerosene into oil sprays of various test concentrations.
About 20 adults of Northern house mosquitoes were liberated in a (70 cm)^3 glass chamber, and 0.7 ml. of each of the oil sprays was sprayed into the chamber under a pressure of 1.5 kg/cm^2 by use of a glass atomizer. Subsequently, the number of knocked-down mosquitoes was counted to calculate the KT50 (50 percent knock down time) of each compound.

[3] = tested on: rice stem borer larvae; assay: micro dropping (topical) test on hibernating rice stem borer larvae (Experimental Example 3); settings: topical in acetone, head and tail of larvae, 3 days
Description: The present compounds (1), (4), (8), (10), (14), (15), (22), (32), (36), (38), (41), (44), (48), (50), (51), (52), (53), (61), (66), (68), (72), (73), (80), (81), (90) and (93) and chrysanthemic acid esters corresponding thereto were individually dissolved in acetone to prepare insecticides of various concentrations. Using a micro dropping means, each of the insecticides was dropped to the head and tail of hibernating rice stem borer larvae.

[4] = concentration of oil spray 0.1%
[5] = concentration of oil spray 0.2%

| SMILES | LC50 [1] [µg/mL] | KT50 (50 percent knock down time) [2, 4] [s] | LD50 (50 percent lethal dose) [3] | KT50 (50 percent knock down time) [2, 5] [s] |
| --- | --- | --- | --- | --- |
| C=CC(C)=CC1C(C(=O)OC(C#N)c2cccc(Oc3ccccc3)c2)C1(C)C (stereo not drawn) [Present compound (22), 3-Phenoxy-α-cyanobenzyl 2',2'-dimethyl-3'-(2"-methyl-1",3"-butadienyl)-cyclopropanecarboxylate] | 40 (≈ 103 µM) | 168 | 0.006 γ/larva |  |
| CC(C)=CC1C(C(=O)OCc2coc(Cc3ccccc3)c2)C1(C)C (centres unmarked) [5-Benzyl-3-furylmethyl chrysanthemate, 5-benzyl-3-furylmethyl chrysanthemate, reference compound] | 100 (≈ 295 µM) |  | 0.20 γ/larva | 205 |
| C=CCC1=C(C)C(OC(=O)C2C(C=C(C)C)C2(C)C)CC1=O (centres unmarked) [Allethrin, reference compound] | 1180 (≈ 3900 µM) | 292 | 2.6 γ/larva | 197 |
| C=CC(C)=CC1C(C(=O)OCc2coc(Cc3ccccc3)c2)C1(C)C (centres unmarked) [Present compound (1), 5-Benzyl-3-furylmethyl 2',2'-dimethyl-3'-(2"-methyl-1", 3"-butadienyl)-cyclopropanecarboxylate] | 53 (≈ 151 µM) |  | 0.068 γ/larva | 131 |
| CC(C)=CC1C(C(=O)OC(C#N)c2cccc(Oc3ccccc3)c2)C1(C)C (stereo not drawn) [3-Phenoxy-α-cyanobenzyl chrysanthemate, reference compound] | 60 (≈ 160 µM) | 230 | 0.01 γ/larva |  |
| C=CC=CC1C(C(=O)OC2CC(=O)C(CC=C)=C2C)C1(C)C (centres unmarked) [Present compound (81), 2-Allyl-3-methyl-2-cyclopentene-1-one-4-yl 2',2'-dimethyl-3'-(1",3"-butadienyl)-cyclopropanecarboxylate] | 590 (≈ 1960 µM) |  | 1.7 γ/larva | 141 |
| C=C(C)C=CC1C(C(=O)OCc2coc(Cc3ccccc3)c2)C1(C)C (centres unmarked) [Present compound (53), 5-Benzyl-3-furylmethyl 2',2'-dimethyl-3'-(3"-methyl-1",3"-butadienyl)-cyclopropanecarboxylate] | 71 (≈ 203 µM) |  | 0.170 γ/larva | 124 |
| C#CCc1ccc(COC(=O)C2C(C=CC=C)C2(C)C)cc1 (centres unmarked) [Present compound (66), 4-Propargylbenzyl 2',2'-dimethyl-3'-(1",3"-butadienyl)-cyclopropanecarboxylate] | 350 (≈ 1190 µM) |  | 0.31 γ/larva |  |
| C=CCc1cc(C)c(COC(=O)C2C(C=C(C)C)C2(C)C)c(C)c1 (centres unmarked) [2,6-Dimethyl-4-allylbenzyl chrysanthemate, reference compound] | 650 (≈ 1990 µM) |  | 0.35 γ/larva |  |
